Data on five compounds can be found in PubChem BioAssay AID493110 (The Scripps Research Institute Molecular Screening Center, 2011).

Active and inactive are the calls of the source. How the calls were made is not given here.

One test addresses LYPLA2. Kind of test: LYPLA1 and LYPLA2 inhibitor potency, dose response, biochemical, gel-based ABPP (AID 493110). As to conditions: competitive probe labeling.
The target of a further test is LYPLA1. The test is described as above. To be noted: competitive probe labeling.

The IC50 is the concentration that gives 50% inhibition. Take `CC(C)(C)C1CCN(C(=O)n2ncc(C3(O)CCCCC3)n2)CC1`: the half-maximal inhibitory concentration (IC50) was 0.057 µM at LYPLA2 and 0.035 µM at LYPLA1.

Take `CC(C)(O)c1cnn(C(=O)N2CCC(C(C)(C)C)CC2)n1`: the results for the IC50 at LYPLA2 and at LYPLA1 were 0.097 µM and 0.044 µM, respectively.

In the case of `CC(C)(C)C1CCN(C(=O)n2ncc(C(O)(c3ccccc3)c3ccccc3)n2)CC1`, the IC50 on LYPLA2 is 0.03 µM; at LYPLA1 it was 0.017 µM.

As for `CCC1CCCCN1C(=O)n1ncc(C(O)(c2ccccc2)c2ccccc2)n1` (stereo not given), the IC50 at LYPLA2 and on LYPLA1 was > 10 µM (inactive) throughout.

On to `O=C(N1CCOCC1)n1nnc2ccccc21`, for which the IC50 entry at LYPLA2 is “inactive”. For the same compound, on LYPLA1, the half-inhibitory concentration (IC50) was 0.795 µM.
